The values that follow are results of earlier work, collected in US20020004489A1, “Retinoid receptor interacting polynucleotides, polypeptides, and antibodies” (priority 1999, published 2002).

Series [1] relates to protease inhibitor-resistant viruses.
Series [2] deals with viruses containing the K103N mutation.
Series [3] relates to lamivudine-resistant isolates.
The conditions of series [4]: deletion of 8-10 C-terminal residues, versus undeleted protein.

Take `Cc1ccccc1CNC(=O)[C@H]1N(C(=O)[C@@H](O)[C@H](Cc2ccccc2)NC(=O)c2cccc(O)c2C)CSC1(C)C` [AG-1776]: the “in vitro activity against protease inhibitor-resistant viruses” value in series [1] is given as “in vitro activity against protease inhibitor-resistant viruses”.
As to `CC(C)c1nc(COC(N)=O)n(Cc2ccncc2)c1Sc1cc(Cl)cc(Cl)c1` [CAPRAVIRINE], in series [2], the “activity against K103N mutants” value is “activity against viruses containing the K103N mutation”.
Take `Nc1nc(=O)n([C@@H]2CS[C@H](CO)O2)cc1F` [COVIRACIL, emtricitabine]: in the series with HIV (in vitro, greater activity than lamivudine (3TC)), the “activity in vitro relative to lamivudine (3TC)” value is reported as 3- to 10 fold.
For `Nc1nc(=O)n([C@H]2C=C[C@@H](CO)O2)cc1F` [DD4FC], the “activity against AZT/3TC-resistant virus” value with AZT/3TC-resistant virus is “activity against AZT/3TC-resistant virus”.
Take `CC[C@H]1C(=O)Nc2ccc(F)cc2N1C(=O)OC(C)C` [GW-420867X]: in the series with HIV (greater activity than HBY097), the “activity relative to HBY097” value is reported as 25 fold. In addition, the “activity against K103N mutants” value in series [2] is “active against K103N mutants”.
Take `C[C@H](Sc1nc(N)cc(Cl)n1)c1cc2ccoc2cn1` [PNU-142721]: the “activity relative to its predecessor delavirdine” value with HIV (greater activity than delavirdine) was 20- to 50 fold. Also, the “activity against K103N mutants” value in series [2] was “active against K103N mutants”.
As to `Nc1ccn([C@H]2CO[C@@H](CO)S2)c(=O)n1` [dOTC], the “activity against lamivudine-resistant isolates” value in series [3] is “retains activity against a substantial proportion of lamivudine-resistant isolates”.
With Interferon gamma, the “activity after deleting 8-10 amino acid residues from the carboxy terminus” value in series [4] is “up to ten times higher activity”.
